Consider 7 molecules from patent publication US20150193575A1, “SYSTEMS AND METHODS OF SELECTING COMPOUNDS WITH REDUCED RISK OF CARDIOTOXICITY” (The Governors of the University of Alberta, priority 2013, published 2015).

One series deals with hERG1 potassium channel (Homo sapiens, UniProt Q12809). The experiment in a line: in vitro. As to the method: Mammalian cells expressing the hERG1 potassium channel were dispensed into 384-well planar arrays and hERG tail-currents were measured by whole-cell voltage-clamping. A range of concentrations (TBD) of the test compounds were then added to the cells and a second recording of the hERG current was made. The percent change in hERG current was calculated.
The experiments were performed on an IonWorks™ FIT instrument (Molecular Devices Corporation), which automatically performs electrophysiology measurements in 48 single cells simultaneously in a specialised 384-well plate (PatchPlate™). All cell suspensions, buffers and test compound solutions were at room temperature during the experiment.
The cells used were Chinese hamster ovary (CHO) cells stably transfected with hERG (cell-line obtained from Cytomyx, UK). A single-cell suspension was prepared in extracellular solution (Dulbecco's phosphate buffered saline with calcium and magnesium pH 7-7.2) and aliquots were added automatically to each well of a PatchPlate™. The cells were then positioned over a small hole at the bottom of each well by applying a vacuum beneath the plate to form an electrical seal. The vacuum was applied through a single compartment common to all wells which were filled with intracellular solution (buffered to pH 7.2 with HEPES). The resistance of each seal was measured via a common ground-electrode in the intracellular compartment and individual electrodes placed into each of the upper wells.
Electrical access to the cell was then achieved by circulating a perforating agent, amphotericin, underneath the PatchPlate™ and then measuring the pre-compound hERG current. An electrode was positioned in the extracellular compartment and a holding potential of −80 mV for 15 sec was applied. The hERG channels were then activated by applying a depolarising step to +40 mV for 5 sec and then clamped at −50 mV for 4 sec to elicit the hERG tail current, before returning to −80 mV for 0.3 s.
A test compound was then added automatically to the upper wells of the PatchPlate™ from a 96-well microtitre plate containing a range of concentrations of each compound. Solutions were prepared by diluting DMSO solutions of the test compound into extracellular buffer. The test compound was left in contact with the cells for 300 sec before recording currents using the same voltage-step protocol as in the pre-compound scan. […] Each concentration was tested in 4 replicate wells on the PatchPlate™.
Post-compound currents were then expressed as a percentage of pre-compound currents and plotted against concentration for each compound. Where concentration-dependent inhibition is observed, the data are fitted to the following equation and an IC50 value calculated: […]
An IC50 was reported if concentration-dependent inhibition is observed. The standard error (SE) of the IC50 model and the number of data-points used to determine IC50 was also reported.

Series [1] has as its target T1, hERG channel (Homo sapiens, UniProt Q12809). The experiment in a line: Predictor hERG fluorescence polarization assay.
Description: Compounds that bind to the hERG channel proteins were identified by their ability to displace the tracer (Predictor hERG Tracer Red) and decrease the fluorescence polarization. The Tracer Red ligand was stored in 100% DMSO and diluted to 8 nM in assay buffer (50 mM Tris-HCl, 1 mM MgCl2, 10 mM KCl, 0.05% Pluronic F127, pH 7.4, 4° C.) on the day of the experiment. Test samples and controls were diluted in assay buffer to 16 concentrations with half-log intervals. Cell membranes were removed from the −80° C. freezer and placed on ice after defrosting. Membranes working solution protein concentration was 0.3 mg/mL. […] IC50 values were derived by fitting a sigmoidal function to concentration-response data, where concentration-dependent inhibition was observed. All IC50 data were calculated and analyzed using GraphPad Prism 6 (GraphPad Software).
The target in series [2] is T1, hERG channel. The experiment in a line: Automated patch clamp (IonFlux) on AC10 cardiomyocytes stably expressing hERG. The following applies: for effect on hERG tail currents / electrophysiology (in words): AC10 cardiomyocytes. For orientation: The patch-clamp technique gives a direct electrical read-out from membranes.
The conditions of series [3]: clinical trial, placed on clinical hold by the FDA; cited from earlier work.
The next series has as its target hERG1 (Homo sapiens, UniProt Q12809). The experiment in a line: FluxOR potassium channel assay in HEK 293 cells stably expressing hERG1.

T1 sequence (Q12809 whole entry): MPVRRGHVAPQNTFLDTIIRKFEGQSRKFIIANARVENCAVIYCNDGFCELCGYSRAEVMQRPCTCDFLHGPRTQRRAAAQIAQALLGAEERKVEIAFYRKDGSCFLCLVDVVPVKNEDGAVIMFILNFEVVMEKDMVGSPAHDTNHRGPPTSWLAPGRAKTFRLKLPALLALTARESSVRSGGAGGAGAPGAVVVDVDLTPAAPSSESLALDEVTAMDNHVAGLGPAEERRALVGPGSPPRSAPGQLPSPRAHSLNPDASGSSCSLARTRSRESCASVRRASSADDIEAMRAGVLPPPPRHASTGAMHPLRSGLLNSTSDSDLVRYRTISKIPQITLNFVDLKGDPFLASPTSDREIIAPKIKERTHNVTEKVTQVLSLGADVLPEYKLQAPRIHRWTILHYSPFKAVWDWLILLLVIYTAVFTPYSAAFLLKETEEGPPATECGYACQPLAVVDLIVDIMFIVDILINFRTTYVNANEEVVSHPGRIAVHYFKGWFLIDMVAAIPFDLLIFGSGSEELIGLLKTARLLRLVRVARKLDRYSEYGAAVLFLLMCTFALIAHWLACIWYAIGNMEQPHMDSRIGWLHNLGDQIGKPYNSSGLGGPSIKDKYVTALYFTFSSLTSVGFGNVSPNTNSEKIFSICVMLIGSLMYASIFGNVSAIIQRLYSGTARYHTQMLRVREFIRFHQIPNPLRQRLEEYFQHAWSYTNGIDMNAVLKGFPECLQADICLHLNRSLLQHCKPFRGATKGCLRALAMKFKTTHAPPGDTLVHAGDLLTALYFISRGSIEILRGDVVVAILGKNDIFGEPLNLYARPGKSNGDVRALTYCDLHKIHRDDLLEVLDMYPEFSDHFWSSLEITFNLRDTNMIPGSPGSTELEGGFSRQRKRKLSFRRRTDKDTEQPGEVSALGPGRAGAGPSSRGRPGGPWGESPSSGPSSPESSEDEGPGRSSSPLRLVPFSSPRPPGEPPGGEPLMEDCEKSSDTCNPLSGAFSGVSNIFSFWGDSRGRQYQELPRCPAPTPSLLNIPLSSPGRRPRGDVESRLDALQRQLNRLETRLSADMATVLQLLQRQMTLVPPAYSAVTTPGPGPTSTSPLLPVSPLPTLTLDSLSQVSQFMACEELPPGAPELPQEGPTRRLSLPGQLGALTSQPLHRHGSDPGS
Chain of hERG1 potassium channel (Q12809 whole entry): as above
Chain of hERG1 (Q12809 whole entry): as above

In the case of `CC(=O)Oc1ccccc1C(=O)O` [Aspirin, acetyl salicylic acid], at hERG1 potassium channel (human), the inhibition (usually the drop in the measured response relative to a control, in per cent) at 300 sec, 0.0032 µM was -2.97%; the inhibition at 300 sec, 0.016 µM was -3.09%; the inhibition at 300 sec, 0.08 µM is -21%; the inhibition at 300 sec, 0.4 µM was -5.88%. For the same molecule, on hERG1 potassium channel (human), the inhibition at 300 sec, 2 µM is -3.71% and the inhibition at 300 sec, 10 µM was -0.546%.

For `COc1nc(N)nc2c1ncn2[C@@H]1O[C@H](COP(=O)(N[C@@H](C)C(=O)OCC(C)(C)C)Oc2cccc3ccccc23)[C@@H](O)[C@@]1(C)O` (some centres unmarked) [BMS986094], the IC50 (usually the point on the concentration scale where inhibition reaches its midpoint) at hERG channel [1] is 3.75 nM; at hERG channel [2] it was 266 nM.

As to `COc1nc(N)nc2c1ncn2C1O[C@H](COP(=O)(N[C@H](C)C(=O)OCC(C)(C)C)Oc2cccc3ccccc23)[C@@H](O)[C@@]1(C)O` (stereo partly drawn) [BMS-986094, (2R)-neopentyl 2-(((((2R,3R,4R)-5-(2-amino-6-methoxy-9H-purin-9-yl)-3,4-dihydroxy-4-methyltetrahydrofuran-2-yl)methoxy)(naphthalen-1-yloxy)phosphoryl)amino)propanoate], on hERG1 potassium channel (CHO cells stably transfected with hERG), the “inhibition of the potassium channel (in words)” value is “inhibit the potassium channel”. Further, at hERG1 potassium channel (human), the inhibition at 300 sec, 0.0032 µM stood at 18.2%; the inhibition at 300 sec, 0.016 µM was -4.94%; the inhibition at 300 sec, 0.08 µM is -8.97%; the inhibition at 300 sec, 0.4 µM was -5.33%. The inhibition at 300 sec, 10 µM on hERG1 potassium channel (human) was found to be 23.3%. The “effects on QT interval prolongation in patients (in words)” value in series [3] is “nine patients in a clinical trial had to be hospitalized and one of them died”. Also, the IC50 on hERG channel [1] was 3 nM. Moreover, the “block of conductance of the potassium channel (in words)” value on hERG1 is reported as “block conductance of the potassium channel”. Besides, at hERG channel [2], the concentration for half-maximal inhibition (IC50) was determined as 266 nM and the “effect on hERG tail currents / electrophysiology (in words)” value was “potently blocks hERG tail currents”.

For the molecule `Nc1nc2c(ncn2[C@@H]2O[C@H](CO)[C@@H](O)[C@H]2O)c(=O)[nH]1` [Guanosine, guanosine], at hERG1 potassium channel (human), the inhibition at 300 sec, 0.0032 µM was determined as 0.711%; the inhibition at 300 sec, 0.016 µM was found to be 6.12%; the inhibition at 300 sec, 0.08 µM is -3.46%; the inhibition at 300 sec, 0.4 µM is 26.3%. Further, on hERG1 potassium channel (human), the inhibition at 300 sec, 2 µM came to 0.453% and the inhibition at 300 sec, 10 µM came to 5.54%. Further, the “displacement of the hERG-bound dye (in words)” value on hERG channel [1] is “no detectable effect on hERG blockage”. On hERG channel [2], the “effect on hERG tail currents / electrophysiology (in words)” value is recorded as “none of BMS-986094 metabolites demonstrates either hERG cavity binding or electrophysiology changes”.

Turning to `O=c1[nH]c2ccccc2n1C1CCN(CCCC(c2ccc(F)cc2)c2ccc(F)cc2)CC1` [Pimozide], at hERG1 potassium channel (human), the inhibition at 300 sec, 0.00032 µM is 2.29%; the inhibition at 300 sec, 0.0016 µM was 4.56%; the inhibition at 300 sec, 0.008 µM was determined as 5.6%; the inhibition at 300 sec, 0.04 µM is 25.1%. On hERG1 potassium channel (human), the inhibition at 300 sec, 0.2 µM is 9.44% and the inhibition at 300 sec, 1 µM was 83.2%.

Turning to `CC(C)NCC(O)c1ccc(NS(C)(=O)=O)cc1` (centres unmarked) [Sotalol], at hERG1 potassium channel (human), the inhibition at 300 sec, 0.0032 µM was determined as 1.69%; the inhibition at 300 sec, 0.016 µM is -0.73%; the inhibition at 300 sec, 0.08 µM was 20.4%; the inhibition at 300 sec, 0.4 µM is 10.9%. Further, at hERG1 potassium channel (human), the inhibition at 300 sec, 2 µM amounted to 1.72% and the inhibition at 300 sec, 10 µM stood at 0.95%.

With `CS(=O)(=O)c1ccc(C2=C(c3ccccc3)C(=O)OC2)cc1` [rofecoxib], the half-maximal inhibitory concentration (IC50) on hERG channel [1] is 5830 nM; against hERG channel [2] it was 15000 nM.
